Reference: ChEMBL document CHEMBL5154941, “Structural Modifications of Nimodipine Lead to Novel PDE1 Inhibitors with Anti-pulmonary Fibrosis Effects” (J Med Chem, 2022)

Biological target: Dual specificity calcium/calmodulin-dependent 3',5'-cyclic nucleotide phosphodiesterase 1C (Homo sapiens, UniProt Q14123)
Assay: Inhibition of PDE1C (147 to 531 residues) (unknown origin) expressed in Escherichia coli BL21 at 1000 nM [3H]-cGMP as substrate measured for 15 mins by liquid scintillation counter method relative to control

Chain of Dual specificity calcium/calmodulin-dependent 3',5'-cyclic nucleotide phosphodiesterase 1C (Q14123 whole entry, the tested form may be a part): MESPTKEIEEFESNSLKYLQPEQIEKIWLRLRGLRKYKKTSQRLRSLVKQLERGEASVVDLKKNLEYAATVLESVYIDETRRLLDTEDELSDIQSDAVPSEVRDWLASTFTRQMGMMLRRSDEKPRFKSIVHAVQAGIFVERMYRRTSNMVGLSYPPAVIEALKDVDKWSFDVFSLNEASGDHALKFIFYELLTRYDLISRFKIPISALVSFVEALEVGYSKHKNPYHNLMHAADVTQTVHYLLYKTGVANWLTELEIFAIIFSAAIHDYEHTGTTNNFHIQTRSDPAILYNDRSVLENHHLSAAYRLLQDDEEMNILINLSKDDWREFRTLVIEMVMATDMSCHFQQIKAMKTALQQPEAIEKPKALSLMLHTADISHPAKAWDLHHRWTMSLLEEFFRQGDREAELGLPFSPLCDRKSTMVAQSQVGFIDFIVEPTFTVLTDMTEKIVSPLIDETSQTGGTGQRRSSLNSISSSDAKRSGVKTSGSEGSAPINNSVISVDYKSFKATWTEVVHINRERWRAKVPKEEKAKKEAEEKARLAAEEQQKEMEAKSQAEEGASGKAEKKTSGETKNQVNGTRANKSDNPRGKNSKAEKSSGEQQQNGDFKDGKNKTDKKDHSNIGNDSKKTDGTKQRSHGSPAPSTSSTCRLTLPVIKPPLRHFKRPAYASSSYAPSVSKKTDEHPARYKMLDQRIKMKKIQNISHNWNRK

COC(=O)C1=C(C)NC(C)=C(C(=O)OC)C1c1ccc(F)c(F)c1
inhibition: 42%
